Read-outs that look alike come from different tables or passages of the source. Where only a bound is given, the exact number is not on record here.

Assay [1] has as its target T1, PDE4B: The catalytic domain of human PDE4B from S152-S528 (Homo sapiens, UniProt Q07343).
T1 construct: His6 (N); thrombin cleavage site (N); made in house; host or cells: E. coli
Description: PDE4 IC50 determination by Scintillation Proximity Assay, PDE4B. In kind it is biochemical. The method in brief: (§1)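 Hydrolysis of [^3H]cAMP measured by SPA with yttrium silicate beads, which bind the [^3H]AMP product strongly and cAMP weakly. Enzyme at 80 ng/ml for PDE4B, 4 ng/ml for PDE4D; 30 min at 30°.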

For the next assay, the target named is T2, PDE4D (Homo sapiens, UniProt Q08499).
T2 construct: PDE4D: The catalytic domain of human PDE4B from S3 16-V692; His6 (N); thrombin cleavage site (N); made in house; host or cells: E. coli
T2 sequence (Q08499 380-756): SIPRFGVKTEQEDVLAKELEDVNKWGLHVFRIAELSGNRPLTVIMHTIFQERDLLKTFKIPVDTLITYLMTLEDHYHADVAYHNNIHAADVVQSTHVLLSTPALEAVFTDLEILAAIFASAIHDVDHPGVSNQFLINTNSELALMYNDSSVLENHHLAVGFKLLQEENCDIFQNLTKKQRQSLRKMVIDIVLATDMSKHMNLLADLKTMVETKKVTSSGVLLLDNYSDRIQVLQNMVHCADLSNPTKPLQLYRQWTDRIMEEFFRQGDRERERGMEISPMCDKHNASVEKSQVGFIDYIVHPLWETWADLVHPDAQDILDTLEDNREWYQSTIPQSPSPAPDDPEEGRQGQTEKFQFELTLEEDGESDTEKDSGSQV
Description: PDE4 IC50 determination by Scintillation Proximity Assay, PDE4D. It counts as biochemical. The method in brief: as §1

Assay [2] addresses T3, full-length human PDE4B2 isozyme (Homo sapiens, UniProt Q07343).
T3 construct: The full-length human PDE4B2 isozyme; His6 (N); TEV cleavage site (N); made in house; host or cells: baculovirus infected insect cells (unpurified lysate)
Nature of the assay: PDE4 IC50 determination by Scintillation Proximity Assay, PDE4B2. It counts as biochemical. The settings on record: Table 1B, Formula I compounds; read-out: IC50 PDE4B2. The method in brief:
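Unpurified His6-TEV-tagged full-length human PDE4B2 from baculovirus-infected insect cell lysate (2.5 μl of 50% glycerol stock/ml) hydrolysed [3H]cAMP in 50 mM Tris pH 7.5, 8.3 mM MgCl, 1.7 mM EGTA, 0.01% BSA for 30 min at 30°. Stopped with SPA beads in 18 mM ZnSO4; [3H]AMP scintillation counted, IC50 by non-linear regression.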
In general terms: SPA uses beads or plates that emit light when radiolabelled molecules are held near them.

The target in assay [3] is T4, full-length human PDE4D5 isozyme (Homo sapiens, UniProt Q08499).
T4 construct: The full-length human PDE4D5 isozyme; His6 (N); TEV cleavage site (N); made in house; host or cells: baculovirus infected insect cells (unpurified lysate)
T4 sequence (Q08499 1-745 isoform Q08499-6): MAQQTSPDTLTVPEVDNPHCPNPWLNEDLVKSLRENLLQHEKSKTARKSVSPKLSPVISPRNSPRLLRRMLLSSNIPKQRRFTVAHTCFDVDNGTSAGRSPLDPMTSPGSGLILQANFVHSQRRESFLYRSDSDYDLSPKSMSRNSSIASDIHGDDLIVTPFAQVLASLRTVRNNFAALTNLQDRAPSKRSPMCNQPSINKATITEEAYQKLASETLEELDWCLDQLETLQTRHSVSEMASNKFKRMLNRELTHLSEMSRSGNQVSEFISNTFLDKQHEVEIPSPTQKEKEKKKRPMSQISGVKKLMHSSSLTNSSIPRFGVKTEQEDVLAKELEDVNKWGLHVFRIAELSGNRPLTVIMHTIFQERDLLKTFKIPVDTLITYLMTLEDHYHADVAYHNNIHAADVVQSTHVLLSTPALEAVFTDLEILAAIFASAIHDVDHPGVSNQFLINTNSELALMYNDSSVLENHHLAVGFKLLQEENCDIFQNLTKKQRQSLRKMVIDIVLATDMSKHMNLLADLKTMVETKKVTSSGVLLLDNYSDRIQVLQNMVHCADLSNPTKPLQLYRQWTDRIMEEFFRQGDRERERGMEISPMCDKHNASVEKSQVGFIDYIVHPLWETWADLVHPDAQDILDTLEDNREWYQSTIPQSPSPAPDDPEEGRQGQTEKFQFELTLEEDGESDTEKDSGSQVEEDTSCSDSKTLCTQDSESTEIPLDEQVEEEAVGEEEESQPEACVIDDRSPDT
Description: PDE4 IC50 determination by Scintillation Proximity Assay, PDE4D5. In kind it is biochemical. As to conditions: Table 1B, Formula I compounds; read-out: IC50 PDE4D5. The method in brief:
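Unpurified His6-tagged full-length human PDE4D5 from baculovirus-infected insect cell lysate, 0.083 μl glycerol stock/ml, hydrolysed [3H]cAMP in Tris pH 7.5/MgCl/EGTA buffer, 30 min at 30°. ZnSO4/SPA beads stop; [3H]AMP counted. Controls: DMSO and roflumilast; 11-point duplicate curves, nonlinear-regression IC50.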

For assay [4], the system named is TNFα levels in serum of LPS-challenged rats. Nature of the assay: Rat inhibition studies: serum TNFα after iv LPS challenge. It counts as in vivo. As to conditions: read-out: % inhibition r TNFα. Here is the method:
All studies were done with male rats CD (SD) IGS BR (Crl) (Charles River, France), which were grouped in to 5 animal groups.
At the end of the acclimatization period, the non-fasted rats were weighed, individually identified on the tail with a permanent marker and administered by oral (po) or interperitoneal (ip) route with either vehicle, reference or test compound in a volume of 10 mL/kg adapted to the body weight. The animals were gathered in groups of 5 animals in a polystyrene labeled cage with sawdust covered floors. 2-hours after vehicle, reference or test substance administration, rats received an intravenous (iv) injection of 0.1 mg/kg LPS in a volume of 1 mL/kg of body weight. 2 h after LPS challenge (or as indicated in Tables 3B and 4B), blood samples were collected into tubes without anticoagulant by retro-orbital puncture under gas (isoflurane) anesthesia. Samples were allowed to clot at room temperature for 5 to 10 min then put on ice until there were prepared by centrifugation (6000×g for 3 min at 4° C.) and stored at −20° C. until use. TNFα levels were measured in serum samples in duplicate by ELISA technique according to the manufacturer's procedure (Rat TNFα kit Quantikine M (RTA00, R&D System, France)). Data are reported as percent decrease in observed TNFα levels versus TNFa levels observed for vehicle dosed animal groups.

[5] abbreviates: Table 1B, Formula I compounds, read-out: IC50 PDE4B.
[6] abbreviates: Table 1B, Formula I compounds, read-out: IC50 PDE4D.
Setting [7] is: po, 2 h, rat in vivo inhibition assay, 100 mg/kg po, 2 hr challenge delay.
Setting [8] is: po, 1 h, rat, 100 mg/kg po, 1 hr challenge delay.
Setting [9] is: po, 2 h, rat in vivo, 100 mg/kg po, 2 hr challenge delay, percent decrease in TNFα versus vehicle.
[10] abbreviates: second part of Table 2B (2-23 to 2-103), column 3, column is PDE4B in first part, read-out: IC 50 vs. indicated assay h TNFα.
Setting [11] is: second part of Table 2B (2-23 to 2-103), column 5, column is PDE4D in first part, read-out: IC 50 vs. indicated assay h TNFα.
[12] abbreviates: po, 1 h, rat in vivo, 100 mg/kg po, 1 hr.

T1 sequence (Q07343 with tags, fused parts or gaps): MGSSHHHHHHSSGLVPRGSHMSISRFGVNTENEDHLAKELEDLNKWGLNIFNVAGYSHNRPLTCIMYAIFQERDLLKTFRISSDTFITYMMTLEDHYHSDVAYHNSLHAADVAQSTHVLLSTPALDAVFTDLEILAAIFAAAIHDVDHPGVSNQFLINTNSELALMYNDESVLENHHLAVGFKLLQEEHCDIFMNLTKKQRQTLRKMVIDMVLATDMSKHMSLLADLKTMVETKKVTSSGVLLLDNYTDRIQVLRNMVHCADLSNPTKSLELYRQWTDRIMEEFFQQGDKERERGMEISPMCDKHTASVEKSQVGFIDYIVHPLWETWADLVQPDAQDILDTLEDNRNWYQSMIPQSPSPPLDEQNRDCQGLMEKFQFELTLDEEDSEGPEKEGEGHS
T3 sequence (Q07343 1-564 isoform Q07343-2): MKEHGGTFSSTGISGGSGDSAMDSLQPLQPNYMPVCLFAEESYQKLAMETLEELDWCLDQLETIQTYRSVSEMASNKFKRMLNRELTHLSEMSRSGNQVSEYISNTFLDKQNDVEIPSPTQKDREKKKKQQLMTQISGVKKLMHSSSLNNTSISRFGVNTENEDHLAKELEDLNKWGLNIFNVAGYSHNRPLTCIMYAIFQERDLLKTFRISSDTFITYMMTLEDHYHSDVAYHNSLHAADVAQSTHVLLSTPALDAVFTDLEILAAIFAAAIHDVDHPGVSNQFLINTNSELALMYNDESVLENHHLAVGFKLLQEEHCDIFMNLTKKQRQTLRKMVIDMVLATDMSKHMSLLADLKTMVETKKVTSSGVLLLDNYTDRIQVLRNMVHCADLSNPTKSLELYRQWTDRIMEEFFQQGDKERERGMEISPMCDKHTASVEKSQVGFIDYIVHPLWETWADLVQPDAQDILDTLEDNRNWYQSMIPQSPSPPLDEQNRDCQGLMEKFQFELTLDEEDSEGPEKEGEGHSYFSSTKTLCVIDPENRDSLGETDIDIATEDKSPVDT

For `Cc1ccc(C(=O)c2sc(Nc3ccccc3)c(C#N)c2N)cc1` [Compound 1-29, 4-Amino-5-(4-methyl-benzoyl)-2-phenylamino-thiophene-3-carbonitrile], the IC50 (in assay [1] (setting [5]); at PDE4D (setting [6]); in assay [2]; in assay [3]) was < 10 µM in each case. For the same compound, the inhibition in vivo at 100 mg/kg in assay [4] (ip, 1 h, rat, 100 mg/kg, ip, 1 hr challenge delay) was > 20%.

Turning to `COc1ccccc1Nc1sc(C(=O)c2ccccc2)c(N)c1C#N` [Compound 1-30, 4-Amino-5-benzoyl-2-(2-methoxy-phenylamino)-thiophene-3-carbonitrile], the IC50 (in assay [1] (setting [5]); at PDE4D (setting [6]); in assay [2]; in assay [3]) was < 10 µM throughout. The inhibition in vivo at 100 mg/kg in assay [4] (setting [7]) was > 20%.

For the compound `COc1ccc(Nc2sc(C(=O)c3ccccc3)c(N)c2C#N)cc1` [Compound 1-32, 4-Amino-5-benzoyl-2-(4-methoxy-phenylamino)-thiophene-3-carbonitrile], the IC50 (in assay [1] (setting [5]); at PDE4D (setting [6]); in assay [2]; in assay [3]) was < 10 µM in each case. Also, in assay [4] (setting [7]), the inhibition in vivo at 100 mg/kg is < 20%.

On to `COc1cccc(C(=O)c2sc(Nc3ccccc3)c(C#N)c2N)c1` [Compound 1-33, 4-Amino-5-(3-methoxy-benzoyl)-2-phenylamino-thiophene-3-carbonitrile], for which the IC50 (in assay [1] (setting [5]); on PDE4D (setting [6]); in assay [2]; in assay [3]) was < 10 µM each time. For the same compound, the inhibition in vivo at 100 mg/kg in assay [4] (setting [7]) was > 20%.

On to `N#Cc1c(Nc2ccccc2)sc(C(=O)c2ccc(-c3ccccc3)cc2)c1N` [Compound 1-34, 4-Amino-5-(biphenyl-4-carbonyl)-2-phenylamino-thiophene-3-carbontrile], for which the IC50 (in assay [1] (setting [5]); on PDE4D (setting [6]); in assay [2]; in assay [3]) was < 10 µM in each case. Also, the inhibition in vivo at 100 mg/kg in assay [4] (setting [7]) is > 20%.

With `N#Cc1c(Nc2ccccc2)sc(C(=O)c2ccc3ccccc3c2)c1N` [Compound 1-35, 4-Amino-5-(naphthalene-2-carbonyl)-2-phenylamino-thiophene-3-carbonitrile], the IC50 (in assay [1] (setting [5]); at PDE4D (setting [6]); in assay [2]; in assay [3]) was < 10 µM throughout. Also, the inhibition in vivo at 100 mg/kg in assay [4] (setting [7]) is < 20%.

Consider `COc1ccc(C(=O)c2sc(Nc3ccc(Cl)cc3)c(C#N)c2N)cc1` [Compound 1-36, 4-Amino-2-(4-chloro-phenylamino)-5-(4-methoxy-benzoyl)-thiophene-3-carbonitrile], for which the IC50 (in assay [1] (setting [5]); on PDE4D (setting [6]); in assay [2]; in assay [3]) was < 10 µM throughout. Further, the inhibition in vivo at 100 mg/kg in assay [4] (setting [8]) is < 20%.

Take `COc1ccc(C(=O)c2sc(Nc3ccc(F)cc3)c(C#N)c2N)cc1` [Compound 1-37, 4-Amino-2-(4-fluoro-phenylamino)-5-(4-methoxy-benzoyl)-thiophene-3-carbonitrile]: the IC50 (in assay [1] (setting [5]); on PDE4D (setting [6]); in assay [2]; in assay [3]) was < 10 µM throughout. The inhibition in vivo at 100 mg/kg in assay [4] (setting [8]) is < 20%.

For `N#Cc1c(Nc2ccc(OC(F)F)cc2)sc(C(=O)c2ccccc2)c1N` [Compound 1-166, 4-Amino-5-benzoyl-2-(4-difluoromethoxy-phenylamino)-thiophene-3-carbonitrile], the IC50 (in assay [1] (setting [5]); at PDE4D (setting [6])) was < 10 µM in each case. Besides, the inhibition in vivo at 100 mg/kg in assay [4] (setting [7]) is < 20%.

Turning to `CSc1ccc(Nc2sc(C(=O)c3ccccc3)c(N)c2C#N)cc1` [Compound 1-167, 4-Amino-5-benzoyl-2-(4-methylsulfanyl-phenylamino)-thiophene-3-carbonitrile], the IC50 (in assay [1] (setting [5]); at PDE4D (setting [6])) was < 10 µM throughout. Moreover, the inhibition in vivo at 100 mg/kg in assay [4] (setting [7]) is < 20%.

With `COc1ccc(C(=O)c2sc(Nc3cccc(SC)c3)c(C#N)c2N)cc1` [Compound 1-177, 4-Amino-5-(4-methoxy-benzoyl)-2-(3-methylsulfanyl-phenylamino)-thiophene-3-carbonitrile], the IC50 (in assay [1] (setting [5]); at PDE4D (setting [6])) was < 10 µM throughout. Also, in assay [4] (setting [7]), the inhibition in vivo at 100 mg/kg is < 20%.

As to `N#Cc1c(NCc2ccccc2)sc(C(=O)c2cc(-c3ccccc3)no2)c1N` [Compound 1-193, 4-Amino-2-benzylamino-5-(3-phenyl-isoxazole-5-carbonyl)-thiophene-3-carbonitrile], the results for the IC50 in assay [1] (setting [5]), in assay [2] and in assay [3] were < 10 µM, > 10 µM and > 10 µM, respectively. The inhibition in vivo at 100 mg/kg in assay [4] (setting [7]) is < 20%.

Regarding `CCOC(=O)c1cc(C(=O)c2sc(Nc3ccccc3F)nc2N)on1` [Compound 2-1, 5-[4-Amino-2-(2-fluoro-phenylamino)-thiazole-5-carbonyl]-isoxazole-3-carboxylic acid ethyl ester], the IC50 was < 10 µM in assay [1] (first part of Table 2B (2-1 to 2-22), read-out: IC 50 vs. indicated assay PDE4B) and < 10 µM on PDE4D (first part of Table 2B (2-1 to 2-22), read-out: IC 50 vs. indicated assay PDE4D). For the same compound, in assay [4] (setting [9]), the inhibition in vivo at 100 mg/kg was < 20%.

Take `CCOC(=O)c1ccc(Nc2nc(N)c(C(=O)c3ccccc3)s2)cc1` [Compound 2-33, 4-(4-Amino-5-benzoyl-thiazol-2-ylamino)-benzoic acid ethyl ester]: the IC50 is < 10 µM in assay [1] (setting [10]) and > 10 µM on PDE4D (setting [11]). Moreover, the inhibition in vivo at 100 mg/kg in assay [4] (setting [9]) is > 20%.

As to `COC(=O)c1cccc(Nc2nc(N)c(C(=O)c3ccccc3)s2)c1` [Compound 2-34, 3-(4-Amino-5-benzoyl-thiazol-2-ylamino)-benzoic acid methyl ester], the IC50 (in assay [1] (setting [10]); at PDE4D (setting [11])) was < 10 µM throughout. The inhibition in vivo at 100 mg/kg in assay [4] (setting [9]) is < 20%.

`CCOC(=O)c1ccc(Nc2nc(N)c(C(=O)c3ccc(OC)cc3)s2)cc1` [Compound 2-38, 4-[4-Amino-5-(4-methoxy-benzoyl)-thiazol-2-ylamino]-benzoic acid ethyl ester]: the IC50 (in assay [1] (setting [10]); at PDE4D (setting [11])) was < 10 µM in each case. For the same compound, the inhibition in vivo at 100 mg/kg in assay [4] (setting [12]) was < 20%.

For the compound `COc1ccc(C(=O)c2sc(Nc3ccc(C(=O)O)cc3)nc2N)cc1` [Compound 2-40, 4-[4-Amino-5-(4-methoxy-benzoyl)-thiazol-2-ylamino]-benzoic acid], the IC50 (in assay [1] (setting [10]); at PDE4D (setting [11])) was < 10 µM throughout. Further, the inhibition in vivo at 100 mg/kg in assay [4] (setting [12]) was < 20%.

In the case of `COc1ccc(C(=O)c2sc(Nc3c(Cl)cccc3Cl)nc2N)cc1` [Compound 2-41, [4-Amino-2-(2,6-dichloro-phenylamino)-thiazol-5-yl]-(4-methoxy-phenyl)-methanone], the IC50 (in assay [1] (setting [10]); at PDE4D (setting [11])) was < 10 µM throughout. Besides, the inhibition in vivo at 100 mg/kg in assay [4] (setting [9]) is < 20%.

Consider `Nc1nc(Nc2c(Cl)cccc2Cl)sc1C(=O)C1CCCC1` [Compound 2-93, [4-Amino-2-(2,6-dichloro-phenylamino)-thiazol-5-yl]-cyclopentyl-methanone], for which the IC50 (in assay [1] (setting [10]); at PDE4D (setting [11])) was < 10 µM in each case. The inhibition in vivo at 100 mg/kg in assay [4] (setting [12]) is < 20%.
